In general, pIC50 refers to −log10 of the IC50, conventionally taken in molar units.

pIC50: −log10 of the molar value.

These results are taken from patent US20240376097A1, “BCL-2 Inhibitor” (BeiGene Ltd., priority 2020, published 2024).

Data set [1] has as its system RS4;11 (BCL-2 dependent acute lymphoblastic leukemia cell line). Nature of the data set: RS4;11 Cell Proliferation Assay. Type of data set: cell-based. The settings on record: Homo sapiens, RS4;11 cells, read-out: Cellular proliferation assay (IC50, nM) RS4. In outline:
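Viability measured via CellTiter-Glo luminescence after a 48 h, 37 °C exposure to compounds (10 points, highest 1 μM). Seeding was 50,000 RS4;11 cells per well in 10% FBS RPMI-1640; IC50 given as mean.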

Data set [2] deals with recombinant human Bcl-2 D103Y protein (Homo sapiens (Human), UniProt P10415, D103Y). Nature of the data set: Bcl-2-D103Y Biochemical Assay (TR-FRET). The data set is classed as binding. The note with it: for pIC50: TR-FRET, FITC labeled Bak peptide; for Ratio of Bcl-2 D103Y/Bcl-2 WT: ratio of IC50. The method, boiled down: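 Compounds titrated against the Bcl-2 D103Y–ligand interaction; inhibition derived from the TR-FRET emission ratio 490 nm/520 nm after 337 nm excitation. Four-parameter logistic fitting gave IC50.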
recombinant human Bcl-2 D103Y protein, sequence (P10415 whole entry D103Y): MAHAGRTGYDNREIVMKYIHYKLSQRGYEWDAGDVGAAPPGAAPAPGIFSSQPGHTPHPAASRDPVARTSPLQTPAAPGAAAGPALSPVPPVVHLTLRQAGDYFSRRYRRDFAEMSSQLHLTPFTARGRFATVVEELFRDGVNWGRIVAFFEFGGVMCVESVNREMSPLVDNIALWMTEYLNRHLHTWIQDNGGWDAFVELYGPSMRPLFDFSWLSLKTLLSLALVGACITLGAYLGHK
(Time-resolved FRET reads energy transfer from a long-lived donor to a nearby acceptor.)

Data set [3] is described as follows: Metabolic Stability Study, liver microsome incubation (human). The note with it: human liver microsomes 0.5 mg/mL, 1 μM compound, NADPH; for half-life at 1 μM: NA^# = very stable, beyond the detection limits, read-out: T1/2 (min) Human; for microsomal CLint at 1 μM: read-out: CLint (μL × min^−1 × mg^−1) Human. The data set is classed as in vitro ADME. As for the experimental part: (§1) Biological Example: Metabolic Stability Study
(§2) The metabolic stability of some compounds was evaluated by using the liver microsome incubation system in vitro. Briefly, the test compounds at 1 μM, were incubated with 0.5 mg/mL liver microsomes from different species (human, dog, rat and mouse) with an NADPH regenerating system at 37° C. Samples were quenched at three time points (0, 30, 60 min) with organic solvent containing internal standards, and the supernatant was analyzed for parent loss via LC-MS/MS. Midazolam was used as the positive control to validate the incubation system.
(§3) where Cprotein is the microsomal protein concentration in the incubation system.
(§4) The value of CLint and T1/2 of Example F132b in WO2019210818 and representative compounds of the disclosure were determined, and the results are shown in Table 5.

Data set [4] is described as follows: Metabolic Stability Study, liver microsome incubation (mouse). The data set is classed as in vitro ADME. The note with it: mouse liver microsomes 0.5 mg/mL, 1 μM compound, NADPH; for half-life at 1 μM: NA^# = very stable, beyond the detection limits, read-out: T1/2 (min) mouse; for microsomal CLint at 1 μM: read-out: CLint (μL × min^−1 × mg^−1) mouse. As for the experimental part: as §1, §2, §3, §4

`CC(C)c1ccccc1C1CN(Cc2ccc(F)cc2)CCN1C1CC2(CCN(c3ccc(C(=O)NS(=O)(=O)c4ccc(NC[C@H]5CC[C@](C)(O)CC5)c([N+](=O)[O-])c4)c(Oc4cnc5[nH]ccc5c4)c3)CC2)C1` (stereo partly drawn) [Example 28, 2-((1H-pyrrolo[2,3-b]pyridin-5-yl)oxy)-4-(2-(4-(4-fluorobenzyl)-2-(2-isopropylphenyl)piperazin-1-yl)-7-azaspiro[3.5]nonan-7-yl)-N-((4-((((1r,4r)-4-hydroxy-4-methylcyclohexyl)methyl)amino)-3-nitrophenyl)sulfonyl)benzamide]: the IC50 in data set [1] turned out to be 0.39 nM. Moreover, in data set [2], the pIC50 was 9.47 and the “Ratio of Bcl-2 D103Y/Bcl-2 WT” value stood at 1.5. In data set [3], the half-life at 1 μM is 135 min and the microsomal CLint at 1 μM stood at 10.3 µL/min/mg. In addition, in data set [4], the half-life at 1 μM turned out to be 200 min and the microsomal CLint at 1 μM turned out to be 6.9 µL/min/mg.
`CC(C)c1ccccc1C1CN(Cc2ccc(Cl)cc2)CCN1C1CC2(CCN(c3ccc(C(=O)NS(=O)(=O)c4ccc(NC[C@H]5CC[C@](C)(O)CC5)c([N+](=O)[O-])c4)c(Oc4cnc5[nH]ccc5c4)c3)CC2)C1` (stereo partly drawn) [Example 29, 2-((1H-pyrrolo[2,3-b]pyridin-5-yl)oxy)-4-(2-(4-(4-chlorobenzyl)-2-(2-isopropylphenyl)piperazin-1-yl)-7-azaspiro[3.5]nonan-7-yl)-N-((4-((((1r,4r)-4-hydroxy-4-methylcyclohexyl)methyl)amino)-3-nitrophenyl)sulfonyl)benzamide]: in data set [1], the IC50 came to 0.43 nM. Further, in data set [2], the negative logarithm of the IC50 (pIC50) was 9.24 and the “Ratio of Bcl-2 D103Y/Bcl-2 WT” value amounted to 1.9. In addition, in data set [3], the half-life at 1 μM is 245 min and the microsomal CLint at 1 μM was 5.6 µL/min/mg. In addition, in data set [4], the half-life at 1 μM was determined as 2360 min and the microsomal CLint at 1 μM was found to be 0.6 µL/min/mg.
Regarding `CC(C)c1ccccc1C1CN(Cc2ccc(C(F)(F)F)cc2)CCN1C1CC2(CCN(c3ccc(C(=O)NS(=O)(=O)c4ccc(NC[C@H]5CC[C@](C)(O)CC5)c([N+](=O)[O-])c4)c(Oc4cnc5[nH]ccc5c4)c3)CC2)C1` (stereo partly drawn) [Example 41, 2-((1H-pyrrolo[2,3-b]pyridin-5-yl)oxy)-N-((4-((((1r,4r)-4-hydroxy-4-methylcyclohexyl)methyl)amino)-3-nitrophenyl)sulfonyl)-4-(2-(2-(2-isopropylphenyl)-4-(4-(trifluoromethyl)benzyl)piperazin-1-yl)-7-azaspiro[3.5]nonan-7-yl) benzamide], the IC50 in data set [1] turned out to be 0.74 nM. In data set [2], the negative logarithm of the IC50 (pIC50) was 8.51 and the “Ratio of Bcl-2 D103Y/Bcl-2 WT” value came to 3.7. Further, in data set [3], the half-life at 1 μM came to 997 min and the microsomal CLint at 1 μM is 1.4 µL/min/mg. In data set [4], the half-life at 1 μM worked out at 683 min and the microsomal CLint at 1 μM was 2 µL/min/mg.
Regarding `CC(C)c1ccccc1C1CN(Cc2cccc(F)c2)CCN1C1CC2(CCN(c3ccc(C(=O)NS(=O)(=O)c4ccc(NC[C@H]5CC[C@](C)(O)CC5)c([N+](=O)[O-])c4)c(Oc4cnc5[nH]ccc5c4)c3)CC2)C1` (stereo partly drawn) [Example 43, 2-((1H-pyrrolo[2,3-b]pyridin-5-yl)oxy)-4-(2-(4-(3-fluorobenzyl)-2-(2-isopropylphenyl)piperazin-1-yl)-7-azaspiro[3.5]nonan-7-yl)-N-((4-((((1r,4r)-4-hydroxy-4-methylcyclohexyl)methyl)amino)-3-nitrophenyl)sulfonyl)benzamide], in data set [1], the IC50 is 0.48 nM. Besides, in data set [2], the pIC50 is 9.08 and the “Ratio of Bcl-2 D103Y/Bcl-2 WT” value stood at 2.7. In data set [3], the half-life at 1 μM came out at 108 min and the microsomal CLint at 1 μM was determined as 12.8 µL/min/mg. In data set [4], the half-life at 1 μM is 193 min and the microsomal CLint at 1 μM amounted to 7.1 µL/min/mg.
As for `CC(C)c1ccccc1C1CN(Cc2ccccc2F)CCN1C1CC2(CCN(c3ccc(C(=O)NS(=O)(=O)c4ccc(NC[C@H]5CC[C@](C)(O)CC5)c([N+](=O)[O-])c4)c(Oc4cnc5[nH]ccc5c4)c3)CC2)C1` (stereo partly drawn) [Example 46, 2-((1H-pyrrolo[2,3-b]pyridin-5-yl)oxy)-4-(2-(4-(2-fluorobenzyl)-2-(2-isopropylphenyl)piperazin-1-yl)-7-azaspiro[3.5]nonan-7-yl)-N-((4-((((1r,4r)-4-hydroxy-4-methylcyclohexyl)methyl)amino)-3-nitrophenyl)sulfonyl)benzamide], the IC50 in data set [1] was 0.91 nM. In data set [2], the negative logarithm of the IC50 (pIC50) was 8.74 and the “Ratio of Bcl-2 D103Y/Bcl-2 WT” value turned out to be 5.1. Moreover, in data set [3], the half-life at 1 μM is 153 min and the microsomal CLint at 1 μM stood at 9.1 µL/min/mg. Also, in data set [4], the half-life at 1 μM came to 131 min and the microsomal CLint at 1 μM was determined as 10.5 µL/min/mg.
Take `COc1ccc(CN2CCN(C3CC4(CCN(c5ccc(C(=O)NS(=O)(=O)c6ccc(NC[C@H]7CC[C@](C)(O)CC7)c([N+](=O)[O-])c6)c(Oc6cnc7[nH]ccc7c6)c5)CC4)C3)C(c3ccccc3C(C)C)C2)c(OC)c1` (stereo partly drawn) [Example 48]: the IC50 in data set [1] is 0.43 nM. Moreover, in data set [2], the pIC50 was 9.70 and the “Ratio of Bcl-2 D103Y/Bcl-2 WT” value stood at 2.8. Also, in data set [3], the half-life at 1 μM stood at 256 min and the microsomal CLint at 1 μM turned out to be 5.4 µL/min/mg. Besides, in data set [4], the half-life at 1 μM is 323 min and the microsomal CLint at 1 μM stood at 4.3 µL/min/mg.
As to `CC(C)c1ccccc1C1CN(Cc2cc(F)cc(F)c2)CCN1C1CC2(CCN(c3ccc(C(=O)NS(=O)(=O)c4ccc(NC[C@H]5CC[C@](C)(O)CC5)c([N+](=O)[O-])c4)c(Oc4cnc5[nH]ccc5c4)c3)CC2)C1` (stereo partly drawn) [Example 51, 2-((1H-pyrrolo[2,3-b]pyridin-5-yl)oxy)-4-(2-(4-(3,5-difluorobenzyl)-2-(2-isopropylphenyl)piperazin-1-yl)-7-azaspiro[3.5]nonan-7-yl)-N-((4-((((1r,4r)-4-hydroxy-4-methylcyclohexyl)methyl)amino)-3-nitrophenyl)sulfonyl)benzamide], in data set [1], the IC50 turned out to be 0.49 nM. In data set [2], the negative logarithm of the IC50 (pIC50) was 8.82 and the “Ratio of Bcl-2 D103Y/Bcl-2 WT” value turned out to be 3.5. Besides, in data set [3], the half-life at 1 μM stood at 234 min and the microsomal CLint at 1 μM is 5.9 µL/min/mg. Moreover, in data set [4], the half-life at 1 μM turned out to be 306 min and the microsomal CLint at 1 μM came out at 4.5 µL/min/mg.
Regarding `COc1ccc(CN2CCN(C3CC4(CCN(c5ccc(C(=O)NS(=O)(=O)c6ccc(NC[C@H]7CC[C@](C)(O)CC7)c([N+](=O)[O-])c6)c(Oc6cnc7[nH]ccc7c6)c5)CC4)C3)[C@H](c3ccccc3C(C)C)C2)cc1OC` [Example 81a, 2-((1H-pyrrolo[2,3-b]pyridin-5-yl)oxy)-4-(2-((R)-4-(3,4-dimethoxybenzyl)-2-(2-isopropylphenyl)piperazin-1-yl)-7-azaspiro[3.5]nonan-7-yl)-N-((4-((((1r,4r)-4-hydroxy-4-methylcyclohexyl)methyl)amino)-3-nitrophenyl)sulfonyl)benzamide], in data set [1], the IC50 was determined as 0.146 nM. In addition, the microsomal CLint at 1 μM in data set [3] was under 1 µL/min/mg. In addition, in data set [4], the half-life at 1 μM came out at 219 min and the microsomal CLint at 1 μM worked out at 6.32 µL/min/mg.
Regarding `COc1cc(CN2CCN(C3CC4(C3)CN(c3ccc(C(=O)NS(=O)(=O)c5ccc(NC[C@H]6CC[C@](C)(O)CC6)c([N+](=O)[O-])c5)c(Oc5cnc6[nH]cc(F)c6c5)c3)C4)[C@H](c3ccccc3C(C)C)C2)cc(F)c1OC` [Example 230, 2-((3-fluoro-1H-pyrrolo[2,3-b]pyridin-5-yl)oxy)-4-(6-((R)-4-(3-fluoro-4,5-dimethoxybenzyl)-2-(2-isopropylphenyl)piperazin-1-yl)-2-azaspiro[3.3]heptan-2-yl)-N-((4-((((1r,4r)-4-hydroxy-4-methylcyclohexyl)methyl)amino)-3-nitrophenyl)sulfonyl)benzamide], in data set [1], the IC50 was found to be 0.1 nM. Further, in data set [3], the half-life at 1 μM came out at 373 min and the microsomal CLint at 1 μM came out at 3.7 µL/min/mg. In addition, in data set [4], the half-life at 1 μM worked out at 183 min and the microsomal CLint at 1 μM was determined as 7.6 µL/min/mg.
Consider `COc1cc(CN2CCN(C3CC4(CCN(c5ccc(C(=O)NS(=O)(=O)c6ccc(NC[C@H]7CC[C@](C)(O)CC7)c([N+](=O)[O-])c6)c(Oc6cnc7[nH]ccc7c6)c5)CC4)C3)[C@H](c3ccccc3C(C)C)C2)ccc1C1CC1` [Example 257], for which, in data set [1], the IC50 is 0.15 nM. Also, in data set [3], the half-life at 1 μM worked out at 372 min and the microsomal CLint at 1 μM amounted to 3.7 µL/min/mg. In data set [4], the half-life at 1 μM is 254 min and the microsomal CLint at 1 μM was determined as 5.5 µL/min/mg.
